Assay results reported in patent US20250151724A1, “Liquid Soil Treatments Containing Choline” (Harrell's, LLC, priority 2023, published 2025).
Where two headings read alike, the source gives them in different places.

Experiments:
[1] = tested on: creeping bentgrass putting greens; assay: Experiment No. 5: putting green field trial of Fleet100 and choline alone or in combination; type: in vivo; conditions: Fleet100 5 fl oz, choline 0.25 oz/1000 ft^2 monthly
Description: There were 4 treatments with 4 replications. Plot size was 5×6 ft. Regular mowing and irrigation were performed. A randomized block design was used. Fleet® 100 was supplied by […]) and choline from Sigma-Aldrich, Inc. (St. Louis, MO) were used in this study. The treatments were as follows: • 1. […] N/1,000 ft^2 biweekly • 3. […] N/1,000 ft^2 biweekly • 4. […] The trial lasted for 12 weeks and a total of 3 treatment applications. […] Leaf chlorophyll content. Leaf samples were collected biweekly and chlorophyll content was determined using the spectrophotometer method described by Zhang et al. (2005). • e. Volumetric water content. […] At day 9 of the dry down cycles, leaf samples were collected and leaf proline content was analyzed. Irrigation was resumed after day 9 of each dry down cycle. […] Leaf proline content. Leaf samples were collected at the end of each dry down cycle and proline content was measured by using the method described by Wu et al. (2017). • g. Root characteristics, biomass, and viability. […] The root length, root diameter, root surface area, and root volume were analyzed using WinRHIZO technology. Briefly, after fine cleaning of each root sample, the sample from each plot was divided into multiple subsamples. Each subsample was scanned using WinRHIZO and all root morphological parameters were generated and analyzed. In addition, root viability was analyzed using TTC method (Zhang et al., 2017). Root viability is a good indicator of root function.

[2] = Description: Soil cores (1 inch diameter and 6 inches deep) were taken from a creeping bentgrass putting green and dried at 65° C. for 48 hours then allowed to air dry for 2 days. […] The soil cores were allowed to air dry for additional 4 days and the water drop penetration test was repeated using the same method. The four treatments were 1) control (distilled water), 2) distilled water plus choline at 0.125 oz./1,000 ft^2, 3) distilled water plus choline at 0.25 oz./1,000 ft^2, and 4) distilled water plus choline at 0.5 oz./1,000 ft^2. There were 3 replications for each treatment. The water drops from distilled water or choline solution were placed on soil cores 0.75 inch from the soil surface. As soon as the water drops reached the soil, a timer was started. When each water drop had disappeared and the water had penetrated into the soil, the time elapsed was recorded.
[3] = choline 0.125 oz/1000 ft2 in distilled water
[4] = choline 0.25 oz/1000 ft2 in distilled water
[5] = choline 0.5 oz/1000 ft2 in distilled water

Structure (SMILES): C[N+](C)(C)CCO.[Cl-] [Choline, choline chloride]
- Chlorophyll Content ([1]; day 0): 2.45a mg/g fresh weight
- Leaf color (1-9, 9 = dark green) ([1]; day 0): 7.5a
- Photochemical Efficiency (Fv/Fm) ([1]; day 0): 0.720a
- Turf quality (1-9, 9 = best) ([1]; day 0): 7.5a
- Chlorophyll Content ([1]; day 14): 2.90a mg/g fresh weight
- Leaf color (1-9, 9 = dark green) ([1]; day 14): 7.6ab
- Photochemical Efficiency (Fv/Fm) ([1]; day 14): 0.696a
- Turf quality (1-9, 9 = best) ([1]; day 14): 7.4a
- Leaf color (1-9, 9 = dark green) ([1]; day 22): 7.4a
- Photochemical Efficiency (Fv/Fm) ([1]; day 22): 0.664a
- Turf quality (1-9, 9 = best) ([1]; day 22): 6.8ab
- Proline ([1]; day 22 (end of 1st dry-down cycle)): 467.0a ug/g FW
- Chlorophyll Content ([1]; day 28): 3.85a mg/g fresh weight
- Leaf color (1-9, 9 = dark green) ([1]; day 28): 7.8a
- Photochemical Efficiency (Fv/Fm) ([1]; day 28): 0.761a
- Turf quality (1-9, 9 = best) ([1]; day 28): 7.6b
- Photochemical Efficiency (Fv/Fm) ([1]; day 40): 0.714a
- Chlorophyll Content ([1]; day 42): 3.03a mg/g fresh weight
- Leaf color (1-9, 9 = dark green) ([1]; day 42): 6.9ab
- Photochemical Efficiency (Fv/Fm) ([1]; day 42): 0.634a
- Turf quality (1-9, 9 = best) ([1]; day 42): 6.5b
- Proline ([1]; day 42 (end of 2nd dry-down cycle)): 538.0a ug/g FW
- Chlorophyll Content ([1]; day 56): 3.46a mg/g fresh weight
- Leaf color (1-9, 9 = dark green) ([1]; day 56): 7.7ab
- Photochemical Efficiency (Fv/Fm) ([1]; day 56): 0.729a
- Turf quality (1-9, 9 = best) ([1]; day 56): 7.4b
- Chlorophyll Content ([1]; day 70): 2.79b mg/g fresh weight
- Leaf color (1-9, 9 = dark green) ([1]; day 70): 7.4ab
- Photochemical Efficiency (Fv/Fm) ([1]; day 70): 0.733ab
- Turf quality (1-9, 9 = best) ([1]; day 70): 7.2ab
- Chlorophyll Content ([1]; day 84): 2.57a mg/g fresh weight
- Leaf color (1-9, 9 = dark green) ([1]; day 84): 7.4b
- Photochemical Efficiency (Fv/Fm) ([1]; day 84): 0.733ab
- Turf quality (1-9, 9 = best) ([1]; day 84): 7.3b
- Root Biomass ([1]; end of trial): 2.14ab mg/cm^3
- Root Diameter ([1]; end of trial): 0.187b mm
- Root Length ([1]; end of trial): 118.2a cm/cm^3
- Root SA ([1]; end of trial): 7.02ab cm^2/cm^3
- Root Volume ([1]; end of trial): 33.4ab cm^3/dm^3
- Root Viability ([1]; end of trial, TTC method): 0.49a A490/g FW
- time of water drop penetration, first test ([2]; 2 days after oven drying of soil cores, not quantified): reduced the time of water drop penetration
- Time of water drop penetration, Average [2, 3]: 250.3ab seconds
- Time of water drop penetration, Rep I [2, 3]: 454 s
- Time of water drop penetration, Rep II [2, 3]: 106 s
- Time of water drop penetration, Rep III [2, 3]: 191 s
- Time of water drop penetration, Average ([2]; choline 0.125 oz/1000 ft2 in distilled water, listed as choline): 250.3 s
- Time of water drop penetration, Average [2, 4]: 129.7ab seconds
- Time of water drop penetration, Rep I [2, 4]: 110 s
- Time of water drop penetration, Rep II [2, 4]: 72 s
- Time of water drop penetration, Rep III [2, 4]: 207 s
- Time of water drop penetration, Average ([2]; choline 0.25 oz/1000 ft2 in distilled water, listed as choline): 129.7 s
- Time of water drop penetration, Average [2, 5]: 97.7b seconds
- Time of water drop penetration, Rep I [2, 5]: 97 s
- Time of water drop penetration, Rep II [2, 5]: 26 s
- Time of water drop penetration, Rep III [2, 5]: 170 s
- Time of water drop penetration, Average ([2]; choline 0.5 oz/1000 ft2 in distilled water, listed as choline): 97.7 s
- Water drop penetration time shorter relative to the control (distilled water) ([2]; choline solution 0.5 oz./1,000 ft^2): 2.5 fold
